Read-outs that look alike come from different tables or passages of the source.
Key:
[1] = biological target: T1, MAOA (Homo sapiens, UniProt P21397); details: cited from earlier work; for IC50: read-out: MAOA IC50, Table 10, Source (1) Wagmann et al. 2017
T1 sequence (P21397 1-527): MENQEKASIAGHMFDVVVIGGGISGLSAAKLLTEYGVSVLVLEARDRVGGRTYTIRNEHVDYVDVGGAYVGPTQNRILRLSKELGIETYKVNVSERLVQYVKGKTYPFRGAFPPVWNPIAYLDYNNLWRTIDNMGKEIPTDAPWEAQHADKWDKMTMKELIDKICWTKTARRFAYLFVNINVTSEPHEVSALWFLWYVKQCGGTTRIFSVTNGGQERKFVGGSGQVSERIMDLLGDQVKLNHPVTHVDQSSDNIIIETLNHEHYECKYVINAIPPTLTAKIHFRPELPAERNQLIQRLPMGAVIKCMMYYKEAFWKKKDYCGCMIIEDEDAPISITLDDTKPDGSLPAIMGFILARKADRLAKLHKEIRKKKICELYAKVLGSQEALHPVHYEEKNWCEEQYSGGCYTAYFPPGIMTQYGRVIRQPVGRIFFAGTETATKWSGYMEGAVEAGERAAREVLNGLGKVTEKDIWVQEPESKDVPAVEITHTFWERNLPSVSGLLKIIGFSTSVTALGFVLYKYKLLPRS

[2] = biological target: T2, human DAT (Homo sapiens, UniProt Q01959); assay: hDAT release of [3H]dopamine, CHO cells; type: cell-based; details: for DAT/SERT ratio: (DAT EC50)^−1/(SERT EC50)^−1, larger numbers indicate higher DAT selectivity
T2 construct: expressed in transfected cells

[3] = biological target: T3, human SERT (Homo sapiens, UniProt P31645); assay: hSERT release of [3H]serotonin, CHO cells; type: cell-based
T3 construct: expressed in transfected cells

[4] = biological target: T4, human 5-HT transporter (hSERT) (Homo sapiens, UniProt P31645); assay: hSERT antagonist radioligand assay ([3H]imipramine), CHO cells; type: binding
T4 construct: expressed in transfected cells; host or cells: CHO
Source text: Interactions with these transporters were therefore separately measured using two additional types of assays: an antagonist radioligand assay of inhibition of the human 5-HT transporter (hSERT) expressed in CHO cells (Tatsumi, M. et al. (1999), Eur. J. Pharmacol., 368: 277-283) and an assay measuring release of [^3H] […] While the former is sensitive to classic reuptake inhibition, the latter can detect the effects of substrates, which also induce release. Specific assay steps and reference compounds are given below for each assay type.
Three tryptamine derivatives were evaluated for inhibiting the human 5-HT transporter (hSERT) as expressed in CHO cells using an antagonist radioligand assay (Tatsumi, M. et al. 1999, Eur. J. Pharmacol., 368: 277-283). […] Test compounds were assayed in two trials at 3.0E-10, 3.0E-9, 3.0E-8, 3.0E-7, 3.0E-6, and 3.0E-5 M.

[5] = biological target: T5, Monoamine oxidase type A (MAOA) (Homo sapiens, UniProt P21397); assay: Enzymatic assay, MAOA (kynuramine substrate); type: biochemical; details: for Hill: Hill of MAOA inhibition curve, Original data; for MAOA inhibition (MAOI or not, in words): original data
T5 construct: purchased Sigma
T5 sequence (P21397 1-527): T1 sequence (P21397 1-527)

[6] = biological target: T6, Nicotinic acetylcholine Receptor α4 β2 (nAChR(a4/b2)) (Homo sapiens, UniProt P17787+P43681); assay: cell-based; details: nAChR(a4/b2), Ion Channel, blocker; read-out: IC50 (μM) Antag./Blocker/Inhibitor
T6 construct: expressed in transfected cells

[7] = biological target: Gamma-aminobutyric acid Receptor A (GABAA) (Homo sapiens, UniProt P14867+P47870); type: cell-based; details: Ion Channel, blocker, read-out: IC50 (μM) Antag./Blocker/Inhibitor
[8] = tested on: neuritogenesis; details: cited from earlier work

T3 sequence (P31645 whole entry): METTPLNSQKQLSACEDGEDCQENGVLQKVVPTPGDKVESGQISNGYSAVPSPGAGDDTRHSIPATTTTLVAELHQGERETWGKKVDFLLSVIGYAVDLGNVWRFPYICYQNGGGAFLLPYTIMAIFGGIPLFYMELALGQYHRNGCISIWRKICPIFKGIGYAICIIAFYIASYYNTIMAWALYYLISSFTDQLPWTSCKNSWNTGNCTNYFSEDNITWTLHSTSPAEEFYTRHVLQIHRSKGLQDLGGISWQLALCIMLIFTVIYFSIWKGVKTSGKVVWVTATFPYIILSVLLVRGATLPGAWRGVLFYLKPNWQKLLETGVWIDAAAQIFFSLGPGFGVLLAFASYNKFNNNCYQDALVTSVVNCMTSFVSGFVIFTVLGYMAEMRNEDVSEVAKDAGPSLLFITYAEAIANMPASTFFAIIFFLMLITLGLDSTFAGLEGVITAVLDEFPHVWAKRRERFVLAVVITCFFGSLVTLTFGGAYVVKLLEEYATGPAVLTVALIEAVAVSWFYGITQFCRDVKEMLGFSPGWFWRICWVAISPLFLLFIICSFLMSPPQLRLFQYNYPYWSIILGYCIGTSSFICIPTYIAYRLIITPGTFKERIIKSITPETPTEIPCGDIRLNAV
T4 sequence (P31645 whole entry): as above
T2 sequence (Q01959 whole entry): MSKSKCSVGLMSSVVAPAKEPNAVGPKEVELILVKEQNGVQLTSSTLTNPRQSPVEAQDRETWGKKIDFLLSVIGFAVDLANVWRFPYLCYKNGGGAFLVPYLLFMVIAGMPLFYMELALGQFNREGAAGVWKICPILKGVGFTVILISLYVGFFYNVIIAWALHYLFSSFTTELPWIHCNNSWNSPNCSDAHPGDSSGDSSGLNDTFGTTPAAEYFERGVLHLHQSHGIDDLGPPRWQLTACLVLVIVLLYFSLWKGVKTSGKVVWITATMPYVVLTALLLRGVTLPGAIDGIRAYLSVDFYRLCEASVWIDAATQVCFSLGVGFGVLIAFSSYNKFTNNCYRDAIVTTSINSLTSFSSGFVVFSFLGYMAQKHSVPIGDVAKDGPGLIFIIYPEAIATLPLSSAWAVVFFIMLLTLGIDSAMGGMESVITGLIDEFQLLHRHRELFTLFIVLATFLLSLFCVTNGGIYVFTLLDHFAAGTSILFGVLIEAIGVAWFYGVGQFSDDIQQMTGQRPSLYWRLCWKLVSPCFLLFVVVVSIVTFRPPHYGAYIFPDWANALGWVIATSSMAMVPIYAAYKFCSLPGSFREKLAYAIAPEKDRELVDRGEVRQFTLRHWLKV
Sequence of Gamma-aminobutyric acid Receptor A (GABAA) (P14867 28-456): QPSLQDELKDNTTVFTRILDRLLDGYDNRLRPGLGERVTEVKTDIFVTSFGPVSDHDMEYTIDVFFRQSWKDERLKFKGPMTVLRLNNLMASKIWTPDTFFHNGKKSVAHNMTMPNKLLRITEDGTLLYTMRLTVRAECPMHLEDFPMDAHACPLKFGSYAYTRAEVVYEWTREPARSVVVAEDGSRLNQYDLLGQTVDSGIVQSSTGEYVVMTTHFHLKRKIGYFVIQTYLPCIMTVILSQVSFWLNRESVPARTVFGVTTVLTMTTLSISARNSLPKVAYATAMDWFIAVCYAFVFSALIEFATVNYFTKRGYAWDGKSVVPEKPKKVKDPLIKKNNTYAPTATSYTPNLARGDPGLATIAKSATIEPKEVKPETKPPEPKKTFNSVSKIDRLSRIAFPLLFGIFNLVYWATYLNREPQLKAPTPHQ
Sequence of Gamma-aminobutyric acid Receptor A (GABAA) (P47870 26-512): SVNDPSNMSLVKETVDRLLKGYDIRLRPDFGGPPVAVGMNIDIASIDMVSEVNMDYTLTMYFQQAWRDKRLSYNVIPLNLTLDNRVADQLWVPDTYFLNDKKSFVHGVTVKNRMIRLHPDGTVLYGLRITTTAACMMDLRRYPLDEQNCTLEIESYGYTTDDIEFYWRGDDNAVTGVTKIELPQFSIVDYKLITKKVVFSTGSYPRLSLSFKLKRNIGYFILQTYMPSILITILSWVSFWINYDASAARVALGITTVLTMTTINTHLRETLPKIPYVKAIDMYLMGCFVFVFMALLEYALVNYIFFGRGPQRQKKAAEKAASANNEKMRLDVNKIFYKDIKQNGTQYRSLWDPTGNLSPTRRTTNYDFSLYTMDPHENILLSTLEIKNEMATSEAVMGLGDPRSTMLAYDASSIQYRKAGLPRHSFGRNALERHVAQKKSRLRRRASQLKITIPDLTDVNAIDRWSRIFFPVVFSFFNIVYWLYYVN
Sequence of Gamma-aminobutyric acid Receptor A (GABAA) (P18507 40-475 partner): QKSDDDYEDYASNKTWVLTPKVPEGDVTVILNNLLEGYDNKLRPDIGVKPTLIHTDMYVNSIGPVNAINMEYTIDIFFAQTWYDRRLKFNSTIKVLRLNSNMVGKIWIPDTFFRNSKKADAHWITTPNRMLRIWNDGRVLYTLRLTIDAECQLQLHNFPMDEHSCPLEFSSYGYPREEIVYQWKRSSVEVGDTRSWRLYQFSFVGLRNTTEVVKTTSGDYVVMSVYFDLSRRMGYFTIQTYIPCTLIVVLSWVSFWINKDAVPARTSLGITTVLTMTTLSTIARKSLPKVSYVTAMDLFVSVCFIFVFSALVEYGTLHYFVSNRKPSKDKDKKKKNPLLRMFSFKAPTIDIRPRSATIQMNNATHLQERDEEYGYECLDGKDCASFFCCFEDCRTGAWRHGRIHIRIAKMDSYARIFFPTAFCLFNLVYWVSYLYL
T6 sequence (P43681 29-627 limits assumed): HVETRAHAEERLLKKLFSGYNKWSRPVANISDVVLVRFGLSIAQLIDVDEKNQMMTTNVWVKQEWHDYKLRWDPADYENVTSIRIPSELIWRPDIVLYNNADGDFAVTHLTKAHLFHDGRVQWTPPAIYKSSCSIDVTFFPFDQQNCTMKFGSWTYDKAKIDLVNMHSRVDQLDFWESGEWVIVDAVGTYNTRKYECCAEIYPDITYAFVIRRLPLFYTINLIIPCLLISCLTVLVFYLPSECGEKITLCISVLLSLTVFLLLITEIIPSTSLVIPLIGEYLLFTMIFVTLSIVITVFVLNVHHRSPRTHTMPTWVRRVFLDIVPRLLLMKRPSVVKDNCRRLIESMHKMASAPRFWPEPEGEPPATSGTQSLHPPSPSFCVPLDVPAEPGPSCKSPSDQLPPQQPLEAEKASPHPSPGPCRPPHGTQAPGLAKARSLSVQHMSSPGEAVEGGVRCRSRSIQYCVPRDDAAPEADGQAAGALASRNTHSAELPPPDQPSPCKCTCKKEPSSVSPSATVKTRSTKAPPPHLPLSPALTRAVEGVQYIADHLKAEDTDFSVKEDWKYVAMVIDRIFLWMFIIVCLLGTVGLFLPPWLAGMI
T6 sequence (P17787 26-502): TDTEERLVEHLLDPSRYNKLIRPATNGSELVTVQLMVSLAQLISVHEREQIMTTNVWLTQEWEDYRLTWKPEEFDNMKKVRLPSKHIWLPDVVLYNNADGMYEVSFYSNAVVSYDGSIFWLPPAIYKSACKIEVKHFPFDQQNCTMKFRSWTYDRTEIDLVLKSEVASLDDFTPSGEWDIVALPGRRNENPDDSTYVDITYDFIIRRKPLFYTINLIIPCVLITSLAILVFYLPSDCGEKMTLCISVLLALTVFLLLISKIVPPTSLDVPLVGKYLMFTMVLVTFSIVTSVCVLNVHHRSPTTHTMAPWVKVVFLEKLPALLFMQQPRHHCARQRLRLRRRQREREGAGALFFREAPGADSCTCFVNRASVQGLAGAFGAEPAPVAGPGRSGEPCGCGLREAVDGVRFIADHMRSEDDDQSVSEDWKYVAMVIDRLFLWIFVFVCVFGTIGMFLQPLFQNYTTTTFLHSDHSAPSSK

In the case of `CC(N)Cc1c[nH]c2ccc(Br)cc12` (stereo not drawn) [1-(5-bromo-1H-indol-3-yl)propan-2-amine], the IC50 [1] is given as 1.3 µM.

In the case of `Cc1ccc2[nH]cc(CC(C)N)c2c1` (stereo not drawn) [1-(5-methyl-1H-indol-3-yl) propan-2-amine], the IC50 [1] is listed as 1.5 µM.

Molecule `CNC(C)C(=O)c1c[nH]c2ccc(F)cc12` (stereo not drawn) [drawing 186] has an EC50 [2] of 0.62 µM, a DAT/SERT ratio [2] of 0.31 and an EC50 [3] of 0.19 µM.

In the case of `CC(N)Cc1c[nH]c2ccc(F)cc12` (stereo not drawn) [1-(5-fluoro-1H-indol-3-yl) propan-2-amine], the “MAOA inhibition (MAOI or not, in words)” value ([1]; previously reported data) is listed as “are MAOIs” and the IC50 [1] is listed as 0.45 µM.

For `CC(N)Cc1c[nH]c2ccccc12` (stereo not drawn) [1-(1H-indol-3-yl)propan-2-amine], the IC50 [1] is given as 0.38 µM.

For `CC(N)Cc1c[nH]c2ccc(Cl)cc12` (stereo not drawn) [1-(5-chloro-1H-indol-3-yl) propan-2-amine], the IC50 [1] is listed as 0.25 µM.

`CNC(C)C(=O)c1c[nH]c2ccc(Cl)cc12` (stereo not drawn) [drawing 185] gave an IC50 [4] of 2.5 µM and a Ki [4] of 1.1 µM.

For `CNCC(=O)c1c[nH]c2ccc(F)cc12` [1-(5-fluoro-1H-indol-3-yl)-2-(methylamino)ethan-1-one, reference compound], the Hill [5] was 1.02, the IC50 ([5]; Table 10, Source: Original data, read-out: MAOA IC50) was 3.43 µM and the “MAOA inhibition (MAOI or not, in words)” value [5] was “is also an MAOI”.

In the case of `CC(N)Cc1c[nH]c2cc(F)ccc12` (stereo not drawn) [1-(6-fluoro-1H-indol-3-yl) propan-2-amine], the IC50 [1] is given as 1.8 µM.

With `CNC(C)C(=O)c1c[nH]c2ccc(Br)cc12` (stereo not drawn) [drawing 184] the IC50 [4] was 5.6 µM and the Ki [4] was 2.6 µM.

With `CCC(N)Cc1c[nH]c2ccc(F)cc12` (stereo not drawn) [1-(5-fluoro-1H-indol-3-yl)butan-2-amine, reference compound] the IC50 [5] was 2.48 µM and the Hill [5] was 0.89.

“Dihydro-AY-erythroidine [reference compound]” gave an IC50 [6] of 0.682 µM.

With `CNC(C)C(=O)c1c[nH]c2ccc(Br)cc12` (stereo not drawn) [drawing 187] the EC50 [2] was 2.1 µM, the DAT/SERT ratio [2] was 0.14 and the EC50 [3] was 0.295 µM.

Molecule `CNC(C)C(=O)c1c[nH]c2ccc(F)cc12` (stereo not drawn) [drawing 183] has an IC50 [4] of 3.5 µM and a Ki [4] of 1.6 µM.

For `Cc1[nH]c2ccc(F)cc2c1CC(C)N` (stereo not drawn) [1-(5-fluoro-2-methyl-1H-indol-3-yl)propan-2-amine], the IC50 [1] is listed as 4.1 µM.

With `CCC(N)C(=O)c1c[nH]c2ccc(F)cc12` (stereo not drawn) [2-amino-1-(5-fluoro-1H-indol-3-yl) butan-1-one] the IC50 [5] was > 30 µM.

For `CNC(C)C(=O)c1c[nH]c2ccc(Cl)cc12` (stereo not drawn) [drawing 188], the EC50 [2] was 0.865 µM, the DAT/SERT ratio [2] was 0.23 and the EC50 [3] was 0.2 µM.

For `CNC(C)Cc1c[nH]c2ccc(F)cc12` (stereo not drawn) [[1-(5-fluoro-1H-indol-3-yl)propan-2-yl](methyl)amine, reference compound], the IC50 [5] was 0.45 µM, the Hill [5] was 1.01 and the “MAOA inhibition (MAOI or not, in words)” value [5] was “are MAOIs”.

Picrotoxin showed an IC50 [7] of 2.78 µM.

For `CNC(C)Cc1ccc2c(c1)OCO2` (stereo not drawn) [MDMA, 3,4-methylenedioxymethamphetamine], the EC50 ([8]; Ly et al. Cell reports 2018, Figure S3, read-out: EC50 for promoting neuritogenesis) is listed as 0.00741 µM and the “Emax for promoting neuritogenesis” value ([8]; relative to ketamine, Ly et al. 2018) is listed as “approximately twice that of ketamine”.

Reference: US20230257347A1 (priority 2020, published 2023)
